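Five concentrations, 48 hours, 96-well plates. TGI: concentration producing complete growth inhibition.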
Key:
Test in all cases: growth of human tumour cells (NCI), 48 h
[1] = test system: HOP-62 NSCLC
[2] = test system: ACHN renal
[3] = test system: NCI-H23 lung
[4] = test system: IGROV1 ovarian
[5] = test system: SF-268 CNS
[6] = test system: HL-60(TB) leukemia
[7] = test system: HOP-92 NSCLC
[8] = test system: CCRF-CEM leukemia
[9] = test system: SK-OV-3 ovarian
[10] = test system: A498 renal

Q: `N=C1SCCS1` was tested. Which TGI [1] did it give?
A: The TGI was over 100 µM.

Q: What about the TGI [2] of the same compound?
A: Its TGI is over 100 µM.

Q: And the TGI [3]?
A: Its TGI is over 100 µM.

Q: What about the TGI [4] of the same compound?
A: Its TGI is over 100 µM.

Q: What about the TGI [5] of the same compound?
A: Its TGI is over 100 µM.

Q: What about the TGI [6] of the same compound?
A: Its TGI is over 100 µM.

Q: And the TGI [7]?
A: Its TGI is over 100 µM.

Q: What about the TGI [8] of the same compound?
A: The TGI was over 100 µM.

Q: And the TGI [9]?
A: Its TGI is over 100 µM.

Q: Which TGI [1] does the source give for `Nc1cccc2cc(S(=O)(=O)Nc3ccc(C(=O)O)cc3)ccc12` here?
A: The TGI was over 100 µM.

Q: What about the TGI [2] of the same compound?
A: The TGI was over 100 µM.

Q: What about the TGI [3] of the same compound?
A: The TGI was over 100 µM.

Q: What about the TGI [10] of the same compound?
A: The TGI was over 100 µM.

Q: And the TGI [4]?
A: Its TGI is over 100 µM.

Q: And the TGI [5]?
A: Its TGI is over 100 µM.

Q: What about the TGI [6] of the same compound?
A: Its TGI is over 100 µM.

Q: And the TGI [7]?
A: Its TGI is over 100 µM.

Q: What about the TGI [8] of the same compound?
A: The TGI was over 100 µM.

Q: And the TGI [9]?
A: Its TGI is over 100 µM.

Q: For `CC(C)=CCC/C(C)=C/CC/C(C)=C/C(O)c1ccccc1` (stereo not given), which TGI [1] is on record?
A: Its TGI is 34.3 µM.

Q: What about the TGI [2] of the same compound?
A: Its TGI is 31.2 µM.

Q: What about the TGI [3] of the same compound?
A: The TGI was 55.8 µM.

Q: What about the TGI [10] of the same compound?
A: Its TGI is 34.2 µM.

Q: And the TGI [4]?
A: The TGI was 37.2 µM.

Q: What about the TGI [5] of the same compound?
A: The TGI was 35.3 µM.

Q: What about the TGI [6] of the same compound?
A: Its TGI is 43.8 µM.

Q: And the TGI [8]?
A: Its TGI is 52.4 µM.

Q: And the TGI [9]?
A: The TGI was 36.5 µM.

Q: Which TGI [1] does the source give for `O=C1c2ccccc2-c2ccc(N(Cc3ccc(Br)cc3)Cc3ccc(Br)cc3)cc21` here?
A: The TGI was over 100 µM.

Q: And the TGI [2]?
A: The TGI was over 100 µM.

Q: What about the TGI [3] of the same compound?
A: The TGI was over 100 µM.

Q: What about the TGI [10] of the same compound?
A: The TGI was over 100 µM.

Q: What about the TGI [4] of the same compound?
A: Its TGI is over 100 µM.

Q: And the TGI [5]?
A: The TGI was over 100 µM.

Q: What about the TGI [6] of the same compound?
A: The TGI was 46.8 µM.

Q: What about the TGI [7] of the same compound?
A: The TGI was over 100 µM.

Q: What about the TGI [8] of the same compound?
A: Its TGI is 46.2 µM.

Q: And the TGI [9]?
A: The TGI was over 100 µM.

Q: With `O=C(c1no[n+]([O-])c1C(=O)c1csc2ccccc12)c1csc2ccccc12` as the compound, how does the TGI [1] read?
A: The TGI was 25.4 µM.

Q: And the TGI [2]?
A: The TGI was 16 µM.

Q: What about the TGI [3] of the same compound?
A: The TGI was 32 µM.

Q: And the TGI [10]?
A: The TGI was 29.3 µM.

Q: What about the TGI [4] of the same compound?
A: Its TGI is 5.69 µM.

Q: And the TGI [5]?
A: The TGI was 23.2 µM.

Q: What about the TGI [6] of the same compound?
A: The TGI was 0.0737 µM.

Q: And the TGI [7]?
A: Its TGI is 5.01 µM.

Q: And the TGI [8]?
A: Its TGI is 0.267 µM.

Q: And the TGI [9]?
A: Its TGI is 33 µM.

Q: For `CC(=O)NC1C(OCc2ccccc2)OC(CO)C(O)C1OC(C)C(=O)NC(C(=O)NC(CCC(=O)Nc1ccc2c(c1)CN1C(=O)c3ccccc3C1=N2)C(N)=O)C(C)C` (stereo not given), which TGI [1] is on record?
A: Its TGI is over 100 µM.

Q: And the TGI [2]?
A: Its TGI is over 100 µM.

Q: And the TGI [3]?
A: The TGI was over 100 µM.

Q: What about the TGI [10] of the same compound?
A: The TGI was over 100 µM.

Q: And the TGI [4]?
A: The TGI was over 100 µM.

Q: What about the TGI [5] of the same compound?
A: Its TGI is over 100 µM.

Q: What about the TGI [6] of the same compound?
A: The TGI was over 100 µM.

Q: What about the TGI [7] of the same compound?
A: The TGI was over 100 µM.

Q: What about the TGI [8] of the same compound?
A: Its TGI is over 100 µM.

Q: And the TGI [9]?
A: Its TGI is over 100 µM.

Q: `NC(=O)OCc1c(O)c2c(c(O)c1COC(N)=O)C(=O)C=CC2=O` was tested. Which TGI [1] did it give?
A: Its TGI is over 100 µM.

Q: What about the TGI [2] of the same compound?
A: Its TGI is over 100 µM.

Q: What about the TGI [3] of the same compound?
A: Its TGI is over 100 µM.

Q: And the TGI [10]?
A: Its TGI is over 100 µM.

Q: And the TGI [4]?
A: The TGI was over 100 µM.

Q: And the TGI [5]?
A: The TGI was over 100 µM.

Q: What about the TGI [6] of the same compound?
A: The TGI was over 100 µM.

Q: And the TGI [7]?
A: The TGI was over 100 µM.

Q: What about the TGI [8] of the same compound?
A: Its TGI is over 100 µM.

Q: And the TGI [9]?
A: The TGI was over 100 µM.

Q: With `CC(=O)Nc1ccc2c(c1)C(=Nc1ccc(C(=O)O)cc1)c1ccccc1-2` as the compound, how does the TGI [1] read?
A: The TGI was over 100 µM.

Q: And the TGI [2]?
A: Its TGI is over 100 µM.

Q: And the TGI [3]?
A: Its TGI is over 100 µM.

Q: And the TGI [10]?
A: The TGI was over 100 µM.

Q: And the TGI [4]?
A: The TGI was over 100 µM.

Q: What about the TGI [5] of the same compound?
A: The TGI was over 100 µM.

Q: What about the TGI [7] of the same compound?
A: Its TGI is over 100 µM.

Q: And the TGI [8]?
A: Its TGI is over 100 µM.

Q: And the TGI [9]?
A: The TGI was over 100 µM.

Q: Which TGI [1] does the source give for `CCOC(=O)c1c(C)n(-c2ccc(C)cc2)c2c1cc(O)c1[nH]c3c(c12)CCCC3` here?
A: Its TGI is over 100 µM.

Q: And the TGI [2]?
A: Its TGI is over 100 µM.

Q: What about the TGI [3] of the same compound?
A: Its TGI is 67 µM.

Q: And the TGI [10]?
A: The TGI was 56.2 µM.

Q: And the TGI [4]?
A: The TGI was 33.9 µM.

Q: What about the TGI [5] of the same compound?
A: The TGI was 55.2 µM.

Q: What about the TGI [6] of the same compound?
A: The TGI was 51.7 µM.

Q: What about the TGI [7] of the same compound?
A: Its TGI is 23.6 µM.

Q: What about the TGI [8] of the same compound?
A: The TGI was 7.64 µM.

Q: And the TGI [9]?
A: Its TGI is over 100 µM.

Q: How did the TGI [1] turn out when `CC(C)c1cccc(C(C)C)c1NC(=S)Nc1ccccc1` was run?
A: The TGI was over 100 µM.

Q: What about the TGI [2] of the same compound?
A: Its TGI is over 100 µM.

Q: What about the TGI [3] of the same compound?
A: Its TGI is over 100 µM.

Q: What about the TGI [10] of the same compound?
A: Its TGI is over 100 µM.

Q: What about the TGI [4] of the same compound?
A: The TGI was over 100 µM.

Q: And the TGI [5]?
A: Its TGI is over 100 µM.

Q: What about the TGI [6] of the same compound?
A: Its TGI is 32.4 µM.

Q: What about the TGI [7] of the same compound?
A: The TGI was over 100 µM.

Q: And the TGI [8]?
A: Its TGI is over 100 µM.

Q: And the TGI [9]?
A: Its TGI is over 100 µM.

Q: What does the source list for `O=C1C(c2c(O)n(-c3ccccc3)c3ccccc23)=Nc2ccccc21`?
A: TGI [1]: > 100 µM; TGI [2]: 79.5 µM; TGI [3]: > 100 µM; TGI [10]: 75.7 µM; TGI [4]: > 100 µM; TGI [5]: > 100 µM; TGI [7]: 84.9 µM; TGI [8]: > 100 µM; TGI [9]: > 100 µM

Q: For `CSc1nc(NC2OC(CO)C(O)C(O)C2O)c(N)c(=O)n1C` (stereo not given), which TGI [1] is on record?
A: Its TGI is over 100 µM.

Q: What about the TGI [3] of the same compound?
A: Its TGI is over 100 µM.

Q: And the TGI [10]?
A: Its TGI is over 100 µM.

Q: And the TGI [4]?
A: The TGI was over 100 µM.

Q: And the TGI [5]?
A: Its TGI is over 100 µM.

Q: And the TGI [6]?
A: Its TGI is over 100 µM.

Q: And the TGI [7]?
A: The TGI was over 100 µM.

Q: What about the TGI [8] of the same compound?
A: Its TGI is over 100 µM.

Q: What about the TGI [9] of the same compound?
A: Its TGI is over 100 µM.

Q: `CCCCC[C@H]1CC=CC(=O)O1` was tested. Which TGI [1] did it give?
A: Its TGI is 45.3 µM.

Q: What about the TGI [2] of the same compound?
A: Its TGI is 43.6 µM.

Q: And the TGI [3]?
A: The TGI was over 100 µM.

Q: And the TGI [10]?
A: The TGI was 9.03 µM.

Q: And the TGI [4]?
A: The TGI was 27.3 µM.

Q: And the TGI [5]?
A: The TGI was 22.3 µM.

Q: What about the TGI [6] of the same compound?
A: Its TGI is 20.3 µM.

Q: And the TGI [7]?
A: Its TGI is 53.3 µM.

Q: And the TGI [8]?
A: Its TGI is 40.6 µM.

Q: And the TGI [9]?
A: Its TGI is 39.7 µM.
